In patent publication US11904051B2, “Shear stress sensitive liposomes” (Universität Basel, priority 2018, dated 2024):
Values joined by “and” are separate entries in the source; they are usually repeats but may differ in a detail not shown here. Equal entries are not always repeated.

Tests used:
Format in all cases: physicochemical
[1] = Dynamic light scattering of liposomes (Delsa Nano C); conditions: 25 ° C.
Experimental: The lipid concentration of the two formulations was determined using the phosphate test (Stalder and Zumbuehl. CHIMIA International Journal for Chemistry 2013, 67, 819-821). Size and size distribution of the liposomes were quantified by means of dynamic light scattering (DLS) using a Delsa Nano C (Beckman Coulter, USA). DLS measurements were performed at a temperature of 25° C., using two laser diodes working at a wavelength of 658 nm. The scattering angle was set to 165 degrees. Cryo-TEM images of Pad-PC-Pad liposomal suspension were taken by mounting the liposomal suspension on glow-discharged holey carbon grids, quickly frozen by a Cryoplunge CP3 system (Gatan, USA), and transferred to a JEM2200FS transmission electron microscope (JEOL, Japan) using a Gatan626 cryo-holder. Cryo-TEM micrographs were recorded at an acceleration voltage of 200 kV at a magnification of 20,000, 4-8 μm under-focus, and a dose of 10 electrons=Å^2, using a F416 CMOS detector (TVIPS, Germany).

[2] = SAXS measurement of liposomes under static conditions (glass capillary); conditions: static condition
From the text: The investigated q-range between 0:02 nm^−1 and 1:65 nm^−1 corresponds to real-space distances d between 314 and 3 nm and, therefore, covers almost the entire nanometer range relevant for the characterization of the liposomes. The diagrams in FIG. 11 show the radially integrated scattering signal of DPPC-DSPE/PEG (top panel) and Pad-PC-Pad (bottom panel) liposomes acquired in suitable glass capillaries.
Suitable models are often utilized in the interpretation of the scattering signal of the system investigated. Herein, the scattering curves of DPPC/DSPE-PEG and Pad-PC-Pad were both fitted using a decoupling approach, which allowed to factorize the total form factor as product of a cross section term for long dimension and a cross section term for shorter dimension (Porod et al., IV. Acta Physica Austriaca 1948, 2, 255-292). To fit the form factor related to the overall shape of DPPC/DSPE-PEG, a thin spherical shell model was used (Breÿler et al., Journal of Applied Crystallography 2015, 48, 1587-1598), whereas the intensity peak related to the bilayer was fitted using a function for a bilayer with a Gaussian electron density profile (Pabst et al., Journal of Applied Crystallography 2003, 36, 1378-1388; Pabst et al., Physical Review E 2000, 62, 4000). The model utilized to fit the bilayer provided the bilayer thickness as the distance head-to-head dhh between the two phospholipid heads and the standard deviation over the phoshpolipid heads.
To fit the form factor related to the overall shape of Pad-PC-Pad a thin ellipsoidal shell model was used (Olson et al., Biochimica et Biophysica Acta (BBA)—Biomembranes 1979, 557, 9-23). An eccentricity E of 0.43 was found. As for DPPC/DSPE-PEG, the intensity peak related to the phospholipid head-to-head distance dhh was fitted using a function for a bilayer with a Gaussian electron density profile (Pabst et al., Journal of Applied Crystallography 2003, 36, 1378-1388; Pabst et al., Physical Review E 2000, 62, 4000) and a normal distribution over dhh. […]

[3] = Surface pressure/area per molecule isotherms of monolayers on Langmuir-Pockels trough
Experimental: The surface pressure/area per molecule isotherm measurements were carried out on a Langmuir-Pockels trough, equipped with a Wilhelmy paper balance (accuracy 0.2 mN/m), at the air-water interface. The isotherms were measured at different subphase temperatures between 5° C. and 25° C. (FIG. 2).
Above 10 C, a plateau of a mixed expanded/condensed phase transition was observed. The appearance of the plateau is accompanied by a shift of the initial lift-off area per molecule to higher values. The plateau represents the first-order phase transition from a liquid-expanded (LE) to a liquid-condensed (LC) phase. The plateau is not fully horizontal, especially it becomes steeper as the temperature increases. The monolayers themselves are stable over the measurable range of surface pressures up to an instrument-based cut-off at 51 mN/m. From the onset of the plateau it is possible to determine the temperature-dependent main transition pressure Πt. For 1,3-diheptadecanamidopropan-2-yl (2-(trimethylammonio) ethyl) phosphate this dependence can be described by a linear function (FIG. 3). The experimental data only deviates from this linear function in close vicinity of the minimum transition temperature T0 below which the transition into a condensed phase directly starts from the gas-analog state (re-sublimation process). […]

[4] = Cryo-TEM of large unilamellar vesicles made of Rad-PC-Rad; conditions: 509 membrane cuts in cryo-TEM image
Experimental: The inventors measured the cryo-TEM images according to a previously described protocol (Ishikawa et al, J. Mol. Biol. 2007, 368 (5), 1249-1258). The cryo-TEM images recorded from large unilamellar vesicles (LUV) entirely made of Rad-PC-Rad, show a significant number of strongly facetted shapes below the membranes' main phase transition temperature of the membranes (Tm≈45° C.) (FIGS. 6 and 7). The ratio between facetted and spherical vesicles calculated from FIG. 6 is 21:4.
The interdigitation of the leaflets in a membrane can be directly measured from lateral cuts through the membrane in the cryo-TEM image (FIG. 6). To collect statistically relevant data, the inventors measured 509 membrane cuts (FIG. 6) with a mean membrane thickness of 3.20 nm±0.02 nm (N=509). With two times 0.7 nm for the headgroups, the hydrophobic layer is 1.8 nm thick. An all-trans alkyl chain of 16 C-atoms has a length of 2.05 nm. Thus, the alkyl chains would have a tilt angle of 64°, which is physically absurd. Therefore, a full bilayer interdigitation can be assumed.

mean diameter (DLS) [1]	polydispersity index (PDI) [1]	head-to-head distance dhh ([2]; bilayer Gauss electron density profile model)	Radius of gyration Rg ([2]; glass capillary, flow rate 0)	eccentricity ε ([2]; thin ellipsoidal shell model)	minimum transition temperature T0 of monolayer ([3]; air-water interface)	critical temperature of monolayers ([3]; extrapolation of ΔS to zero)	mean membrane thickness [4]	SMILES
131.6+/−0.9 nm	0.103+/−0.009	3.3±0.8 nm and 3.3 nm	60.3 nm and 60.3 ± 0.4 nm	0.43	–	–	–	CCCCCCCCCCCCCCCC(=O)NCC(CNC(=O)CCCCCCCCCCCCCCC)OP(=O)([O-])OCC[N+](C)(C)C [Pad-PC-Pad, 1,3-palmitoylamido-1,3-deoxy-sn-glycero-2-phosphatidylcholine]
–	–	–	–	–	11.2 °C	306.3 K	3.20 nm	CCCCCCCCCCCCCCCCC(=O)NCC(CNC(=O)CCCCCCCCCCCCCCCC)OP(=O)([O-])OCC[N+](C)(C)C [Rad-PC-Rad, 1,3-diheptadecanamidopropan-2-yl (2-(trimethylammonio)ethyl) phosphate]
